Data: patent US20050113318A1, “Combination of dehydroepiandrosterone or dehydroepiandrosterone-sulfate with a beta-agonist bronchodilator for treatment of asthma or chronic obstructive pulmonary disease” (priority 2003, published 2005)
Several values for one entry are separate records, joined by “and”; a condition that tells them apart may be missing. Equal entries are not always repeated.

What was measured:
Assay type in all cases: physicochemical
[1] = HPLC analysis of drug degradation during jet milling; details: single-pass and double-pass vs unmilled standard, HPLC peak area
Method: Two vials (A; single-pass; 150 mg) and (B double-pass; 600 mg) of the micronized drug were available for determining drug degradation during jet milling micronization. […] The chromatographic peak area for the HPLC assay of the unmilled drug standard solution (10 mg/ml) gave a value of 23,427. […] The chromatographic peak areas for vials A and B were 11,979 and 11,677, respectively.

[2] = Emitted dose studies with dry powder inhalers; details: for Emitted Dose: single runs
Method: DHEA-S powder was collected in Nephele tubes and assayed by HPLC. Triplicate experiments were performed at each airflow rate for each of the three dry powder inhalers tested (Rotahaler, Diskhaler and IDL's DPI devices). A Nephele tube was fitted at one end with a glass filter (Gelman Sciences, Type A/E, […]), which in turn was connected to the airflow line to collect the emitted dose of the drug from the respective dry powder inhaler being tested. A silicone adapter, with an opening to receive the mouthpiece of the respective dry powder inhaler being tested at the other end of the Nephele tube was secured. A desired airflow, of 30, 60, or 90 L/min, was achieved through the Nephele tube. Each dry powder inhaler's mouthpiece was inserted then into the silicone rubber adapter, and the airflow was continued for about four s after which the tube was removed and an end-cap screwed onto the end of each tube. The end-cap of the tube not containing the filter was removed and 10 ml of an HPLC grade water-acetonitrile solution (1:1) added to the tube, the end-cap reattached, and the tube shaken for 1-2 minutes. The end-cap then was removed from the tube and the solution was transferred to a 10 ml plastic syringe fitted with a filter (Cameo 13N Syringe Filter, Nylon, 0.22 μm). An aliquot of the solution was directly filtered into an HPLC vial for later drug assay via HPLC. […] When the micronized DHEA-S (only vial B used), was weighed for placement into the gelatin capsule or blister, there appeared to be a few aggregates of the micronized powder. […] Table 2 summarizes the results for the Rotahaler experiments at 3 different flow rates, for the Diskhaler experiments at 3 different flow rates, and of the multi-dose experiments at 3 different flow rates.

[3] = Respirable dose studies, Andersen cascade impactor; details: 90 L/min
Method: The respirable dose (respirable fraction) studies were performed using a standard sampler cascade impactor (Andersen), consisting of an inlet cone (an impactor pre-separator was substituted here), 9 stages, 8 collection plates, and a backup filter within 8 aluminum stages held together by 3 spring clamps and gasket O-ring seals, where each impactor stage contains multiple precision drilled orifices. When air is drawn through the sampler, multiple jets of air in each stage direct any airborne particles toward the surface of the collection plate for that stage. The size of the jets is constant for each stage, but is smaller in each succeeding stage. Whether a particle is impacted on any given stage depends upon its aerodynamic diameter. The range of particle sizes collected on each stage depends upon on the jet velocity of the stage, and the cut-off point of the previous stage. Any particle not collected on the first stage follows the air stream around the edge of the plate to the next stage, where it is either impacted or passed on to the succeeding stage, and so on, until the velocity of the jet is sufficient for impaction. To prevent particle bounce during the cascade impactor test, the individual impactor plates were coated with a hexane-grease (high vacuum) solution (100:1 ratio). As noted above, the particle size cut-off points on the impactor plates changed at different airflow rates. […] The set-up recommended by the United States Phamacopeia for testing dry powder inhalers consists of a mouthpiece adapter (silicone in this case) attached to a glass throat (modified 50 ml round-bottom flask) and a glass distal pharynx (induction port) leading top the pre-separator and Andersen sampler. The pre-separator sample includes washings from the mouthpiece adaptor, glass throat, distal glass pharynx and pre-separator. 5 ml acetonitrile:water (1:1 ratio) solvent was placed in the pre-separator before performing the cascade impactor experiment, that were performed in duplicate with 3 different dry powder inhaler devices and at 3 airflow rates, 30, 60 and 90 L/min. The drug collected on the cascade impactor plates were assayed by the HPLC, and a drug mass balance was performed for each Diskhaler and multi-dose cascade impactor experiment consisting of determining the amount of drug left in the blister, the amount of drug remaining in the device (Diskhaler only), the non-respirable amount of the dose retained on the silicone rubber mouth piece adaptor, glass throat, glass distal pharynx and pre-separator, all combined into one sample, and the respirable dose, i.e. Stage 2 through filter impactor plates for airflow rates of 30 and 60 L/min and Stages 1 through filter impactor plates for 90 L/min experiments.
The cascade impactor experiments were conducted as described in Example 3. Four cascade impactor experiments were done, three with a IDL multi-dose device and one with a Diskhaler, all at 90 L/min. […] However, the % respirable dose was still low. This was likely the result of moisture absorption of the anhydrous form.

[4] = Solid-state stability with and without lactose (DHEA formed, HPLC)
Excerpt: These conditions were used to stress the formulation in order to predict its long-term stability results. […] This color change is accompanied by a significant change in the chromatogram as shown in. FIG. 1. The primary degradant is DHEA. […] The materials on accelerated storage become more cohesive with time as evidenced by clumping during sample weighing for chemical analysis. […] This is a considerable disadvantage since lactose is the most commonly used inhalation excipient for dry powder formulations. Continuing with the virtually anhydrous form would mean limiting formulations to neat powder or undertaking more comprehensive safety studies to use a novel excipient.

[5] = Diskhaler (2nd study), 87.8 L/min
[6] = IDL Multi-Dose (2nd study), 87.8 L/min
[7] = Multi-dose, oven dried drug for 80 minutes
[8] = Multi-dose, oven dried drug for 20 hours

Q: What does the source list for `C[C@]12CC[C@H](OS(=O)(=O)[O-])CC1=CC[C@@H]1[C@@H]2CC[C@]2(C)C(=O)CC[C@@H]12.[Na+]` [Anhydrous DHEA-S]?
A: degradation of the drug during jet milling micronization [1]: no detectable degradation; Emitted Dose, Average [2, 5]: 59.1%; Emitted Dose [2, 5]: 57.9% and 59.9% and 59.5%; Emitted Dose, Average ([2]; Diskhaler, 30 L/min): 58.6%; Emitted Dose ([2]; Diskhaler, 30 L/min): 53.8% and 53.4% and 68.7%; Emitted Dose, Average ([2]; Diskhaler, 60 L/min): 68.2%; Emitted Dose ([2]; Diskhaler, 60 L/min): 63.4% and 38.9% and 58.0%; Emitted Dose, Average ([2]; Diskhaler, 87.8 L/min): 51.3%; Emitted Dose ([2]; Diskhaler, 87.8 L/min): 65.7% and 41.6% and 46.5%; Emitted Dose, Average [2, 6]: 84.8%; Emitted Dose [2, 6]: 85.7% and 84.6% and 84.0%; Emitted Dose, Average ([2]; IDL Multi-Dose, 30 L/min): 85.4%; Emitted Dose ([2]; IDL Multi-Dose, 30 L/min): 78.9% and 88.2% and 89.2%; Emitted Dose, Average ([2]; IDL Multi-Dose, 60 L/min): 84.0%; Emitted Dose ([2]; IDL Multi-Dose, 60 L/min): 78.8% and 83.7% and 89.6%; Emitted Dose, Average ([2]; IDL Multi-Dose, 87.8 L/min): 72.6%; Emitted Dose ([2]; IDL Multi-Dose, 87.8 L/min): 71.3% and 79.0% and 67.4%; Emitted Dose, Average ([2]; Rotahaler (2nd study), 87.8 L/min): 31.5%; Emitted Dose, Average ([2]; Rotahaler, 30 L/min): 34.7%; Emitted Dose, Average ([2]; Rotahaler, 60 L/min): 57.3%; Emitted Dose ([2]; Rotahaler, 60 L/min): 58.1% and 68.2% and 45.7%; Emitted Dose, Average ([2]; Rotahaler, 87.8 L/min): 69.7%; Emitted Dose ([2]; Rotahaler, 87.8 L/min): 73.2% and 67.1% and 68.7%; respirable dose of spray-dried compared to micronized anhydrous DHEA-S [3]: two-fold increase; Blister [3, 7]: 2.8%; Mass Balance [3, 7]: 100.0%; Preseparator [3, 7]: 78.7%; Respirable Dose [3, 7]: 4.6%; Device ([3]; Multi-dose, oven dried drug for 80 minutes, by difference): 13.9 *^a %; Blister [3, 8]: 5.0%; Mass Balance [3, 8]: 100.0%; Preseparator [3, 8]: 55.9%; Respirable Dose [3, 8]: 1.2%; Device ([3]; Multi-dose, oven dried drug for 20 hours, by difference): 37.9 *^a %; Blister ([3]; jet-milled drug, Diskhaler): 6.6% and 10.1%; Device ([3]; jet-milled drug, Diskhaler): 22.1% and 13.3%; Mass Balance ([3]; jet-milled drug, Diskhaler): 104.3% and 86.0%; Preseparator ([3]; jet-milled drug, Diskhaler): 72.7% and 60.2%; Respirable Dose ([3]; jet-milled drug, Diskhaler): 2.9% and 2.4%; Blister ([3]; jet-milled drug, Multi-dose): 3.8% and 3.9%; Mass Balance ([3]; jet-milled drug, Multi-dose): 100.0%; Preseparator ([3]; jet-milled drug, Multi-dose): 73.3% and 65.8%; Respirable Dose ([3]; jet-milled drug, Multi-dose): 3.6% and 3.8%; Device ([3]; jet-milled drug, Multi-dose, retention obtained by difference): 19.3 *^a % and 26.5 *^a %; Blisters ([3]; spray-dried drug, Diskhaler): 29.0%; Device ([3]; spray-dried drug, Diskhaler): 11.2%; Preseparator ([3]; spray-dried drug, Diskhaler): 56.8%; Respirable Dose ([3]; spray-dried drug, Diskhaler): 5.6%; DHEA % formed ([4]; 50° C., 1 week): 9.817%; DHEA % formed ([4]; 50° C., 2 weeks): 14.954%; DHEA % formed ([4]; 50° C., 4 weeks): 20.171%; DHEA % formed ([4]; Control: neat, sealed vial, 25° C., 1 week): 2.694%; DHEA % formed ([4]; Control: neat, sealed vial, 25° C., 2 weeks): 2.370%; DHEA % formed ([4]; Control: neat, sealed vial, 25° C., 4 weeks): 2.666%; DHEA % formed ([4]; Control: neat, sealed vial, 25° C., first time column (head empty, time 0)): 2.774%
